From patent publication US20060235076A1, “Medicinal composition for treating infection with drug-resistant staphylococcus aureus” (priority 2003, published 2006)
≈ marks a conversion by molar mass, not a printed value. Where two headings read alike, the source gives them in different places.

Tests used:
[1] = test system: MRSA COL and MRSA Strain No. 5; test: Potentiating effect of various gallates for antibacterial activity of oxacillin (MIC by broth microdilution method and FIC); format: cell-based, Staphylococcus aureus; conditions: combination with oxacillin
Protocol: According to the broth microdilution method defined by Japan Society of Chemotherapy, MIC was determined. CAMHA was prepared by adding 50 mg/l of Ca-ion, 25 mg/l of Mg-ion, and 2% of NaCl to MHB (Mueller-Hinton Broth), and it was used as a medium for use in the measurement of sensitivity. In 96-well microplates 100 μl of the medium for use in the measurement of sensitivity containing drugs was dispensed. The bacterial liquid was incubated at 37° C. overnight, diluted with saline and added to the plate so that the final concentration of the bacteria was 5×10^5 CFU/well. […] FIC (fractional inhibitory concentration) was calculated from the result and the potency of the effect of the combination use was evaluated.

MRSA and MSSA = test: Antibacterial activity of gallic acid, various gallates and multivalent phenol derivatives alone (agar plate dilution method, MIC); format: cell-based, Staphylococcus aureus; conditions: Staphylococcus aureus
Outline: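 Each compound tested alone. Bacteria cultured overnight at 37 °C, then brought to 10^6 CFU/ml in saline and tested on MHA II with added Ca-ion (50 mg/l), Mg-ion (25 mg/l) and 2% NaCl. MIC read by the Japan Society of Chemotherapy agar dilution method.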

With `CCCCCCCCCCCCOC(=O)c1cc(O)c(O)c(O)c1` [Lauryl gallate, n-lauryl gallate] the FIC value ([1]; MRSA COL) was 0.531, the FIC value ([1]; MRSA Strain No. 5) was 0.375 and the MIC (MRSA and MSSA; ATCC 6538 / MRSA / MSSA, ATCC6538, compound alone, read-out: MIC) was 62.5 µg/mL (≈ 185 µM). For the same compound, the MIC (MRSA and MSSA; COL, compound alone, read-out: MIC) was 31.3 µg/mL (≈ 92.5 µM), the MIC (MRSA and MSSA; MRSA #1, compound alone, read-out: MIC) was 62.5 µg/mL (≈ 185 µM) and the MIC (MRSA and MSSA; MRSA #2, compound alone, read-out: MIC) was 62.5 µg/mL (≈ 185 µM). The MIC (MRSA and MSSA; MRSA #3, compound alone, read-out: MIC) was 62.5 µg/mL (≈ 185 µM), the MIC (MRSA and MSSA; MRSA #4, compound alone, read-out: MIC) was 62.5 µg/mL (≈ 185 µM) and the MIC (MRSA and MSSA; MRSA #5, compound alone, read-out: MIC) was 62.5 µg/mL (≈ 185 µM). For the same compound, the MIC (MRSA and MSSA; MRSA #6, compound alone, read-out: MIC) was 31.3 µg/mL (≈ 92.5 µM), the MIC (MRSA and MSSA; MRSA #7, compound alone, read-out: MIC) was 31.3 µg/mL (≈ 92.5 µM) and the MIC (MRSA and MSSA; MRSA #8, compound alone, read-out: MIC) was 31.3 µg/mL (≈ 92.5 µM). It also gave an MIC (MRSA and MSSA; MRSA #9, compound alone, read-out: MIC) of 31.3 µg/mL (≈ 92.5 µM), an MIC (MRSA and MSSA; MRSA #10, compound alone, read-out: MIC) of 15.6 µg/mL (≈ 46.1 µM) and an MIC (MRSA and MSSA; MRSA #12, compound alone, read-out: MIC) of 62.5 µg/mL (≈ 185 µM). The MIC (MRSA and MSSA; MRSA #16, compound alone, read-out: MIC) was 62.5 µg/mL (≈ 185 µM), the MIC (MRSA and MSSA; MRSA #17, compound alone, read-out: MIC) was 62.5 µg/mL (≈ 185 µM) and the MIC (MRSA and MSSA; MRSA #18, compound alone, read-out: MIC) was 62.5 µg/mL (≈ 185 µM). The MIC (MRSA and MSSA; MRSA #20, compound alone, read-out: MIC) was 62.5 µg/mL (≈ 185 µM), the MIC (MRSA and MSSA; MRSA #21, compound alone, read-out: MIC) was 62.5 µg/mL (≈ 185 µM) and the MIC (MRSA and MSSA; MRSA #22, compound alone, read-out: MIC) was 62.5 µg/mL (≈ 185 µM). The MIC (MRSA and MSSA; MRSA #24, compound alone, read-out: MIC) was 62.5 µg/mL (≈ 185 µM), the MIC (MRSA and MSSA; MSSA #1003, compound alone, read-out: MIC) was 62.6 µg/mL (≈ 185 µM) and the MIC (MRSA and MSSA; MSSA #1010, compound alone, read-out: MIC) was 62.5 µg/mL (≈ 185 µM). It also gave an MIC (MRSA and MSSA; MSSA #1020, compound alone, read-out: MIC) of 62.5 µg/mL (≈ 185 µM), an MIC (MRSA and MSSA; MSSA #1023, compound alone, read-out: MIC) of 62.5 µg/mL (≈ 185 µM) and an MIC (MRSA and MSSA; MSSA #1029, compound alone, read-out: MIC) of 62.5 µg/mL (≈ 185 µM). For the same compound, the MIC (MRSA and MSSA; MSSA #1032, compound alone, read-out: MIC) was 62.5 µg/mL (≈ 185 µM) and the MIC50 (MRSA and MSSA; over all strains of Table 3-2, compound alone, read-out: MIC50) was 62.5 µg/mL (≈ 185 µM).
Compound `CCOC(=O)c1cc(O)c(O)c(O)c1` [Ethyl gallate, ethyl gallate] has an FIC value ([1]; MRSA COL) of 0.125, an FIC value ([1]; MRSA Strain No. 5) of 0.156 and an MIC50 (MRSA and MSSA) of 125 µg/mL (≈ 631 µM). It also gave an MIC (MRSA and MSSA; ATCC 6538 / MRSA / MSSA, read-out: MIC alone) of 125 µg/mL (≈ 631 µM), an MIC (MRSA and MSSA; COL, read-out: MIC alone) of 125 µg/mL (≈ 631 µM) and an MIC (MRSA and MSSA; MRSA #1, read-out: MIC alone) of 125 µg/mL (≈ 631 µM). The MIC (MRSA and MSSA; MRSA #2, read-out: MIC alone) was 62.5 µg/mL (≈ 315 µM), the MIC (MRSA and MSSA; MRSA #3, read-out: MIC alone) was 125 µg/mL (≈ 631 µM) and the MIC (MRSA and MSSA; MRSA #4, read-out: MIC alone) was 62.5 µg/mL (≈ 315 µM). It also gave an MIC (MRSA and MSSA; MRSA #5, read-out: MIC alone) of 125 µg/mL (≈ 631 µM), an MIC (MRSA and MSSA; MRSA #6, read-out: MIC alone) of 62.5 µg/mL (≈ 315 µM) and an MIC (MRSA and MSSA; MRSA #7, read-out: MIC alone) of 125 µg/mL (≈ 631 µM). For the same compound, the MIC (MRSA and MSSA; MRSA #8, read-out: MIC alone) was 125 µg/mL (≈ 631 µM), the MIC (MRSA and MSSA; MRSA #9, read-out: MIC alone) was 62.5 µg/mL (≈ 315 µM) and the MIC (MRSA and MSSA; MRSA #10, read-out: MIC alone) was 62.5 µg/mL (≈ 315 µM). For the same compound, the MIC (MRSA and MSSA; MRSA #12, read-out: MIC alone) was 125 µg/mL (≈ 631 µM), the MIC (MRSA and MSSA; MRSA #16, read-out: MIC alone) was 125 µg/mL (≈ 631 µM) and the MIC (MRSA and MSSA; MRSA #17, read-out: MIC alone) was 62.5 µg/mL (≈ 315 µM). The MIC (MRSA and MSSA; MRSA #18, read-out: MIC alone) was 62.5 µg/mL (≈ 315 µM), the MIC (MRSA and MSSA; MRSA #20, read-out: MIC alone) was 125 µg/mL (≈ 631 µM) and the MIC (MRSA and MSSA; MRSA #21, read-out: MIC alone) was 125 µg/mL (≈ 631 µM). It also gave an MIC (MRSA and MSSA; MRSA #22, read-out: MIC alone) of 125 µg/mL (≈ 631 µM), an MIC (MRSA and MSSA; MRSA #24, read-out: MIC alone) of 125 µg/mL (≈ 631 µM) and an MIC (MRSA and MSSA; MSSA #1003, read-out: MIC alone) of 125 µg/mL (≈ 631 µM). It also gave an MIC (MRSA and MSSA; MSSA #1010, read-out: MIC alone) of 125 µg/mL (≈ 631 µM), an MIC (MRSA and MSSA; MSSA #1020, read-out: MIC alone) of 125 µg/mL (≈ 631 µM) and an MIC (MRSA and MSSA; MSSA #1023, read-out: MIC alone) of 62.5 µg/mL (≈ 315 µM). For the same compound, the MIC (MRSA and MSSA; MSSA #1029, read-out: MIC alone) was 62.5 µg/mL (≈ 315 µM) and the MIC (MRSA and MSSA; MSSA #1032, read-out: MIC alone) was 125 µg/mL (≈ 631 µM).
